PubChem BioAssay AID651981 (The Scripps Research Institute Molecular Screening Center, 2013)
Activity calls are given as the source filed them. No rule for the calls is given here.

Assays:
Test in all cases: PubChem AID 651981
AADACL1 = conditions: BW5147 mouse T-cell proteome, ABPP-SILAC LC-MS ratio, at 1 µM, hits give low values
ABHD12 = conditions: BW5147 mouse T-cell proteome, ABPP-SILAC LC-MS ratio, at 1 µM, hits give low values
ACOT1 = conditions: BW5147 mouse T-cell proteome, ABPP-SILAC LC-MS ratio, at 1 µM, hits give low values
ACOT2 = conditions: BW5147 mouse T-cell proteome, ABPP-SILAC LC-MS ratio, at 1 µM, hits give low values
APEH = conditions: BW5147 mouse T-cell proteome, ABPP-SILAC LC-MS ratio, at 1 µM, hits give low values
[1] = molecular target: Acyl-protein thioesterase 1 (Mus musculus) (UniProt P97823); conditions: BW5147 mouse T-cell proteome, ABPP-SILAC LC-MS ratio; LYPLA1; at 1 µM; hits give low values
DPP4 = conditions: BW5147 mouse T-cell proteome, ABPP-SILAC LC-MS ratio, at 1 µM, hits give low values
DPP8 = conditions: BW5147 mouse T-cell proteome, ABPP-SILAC LC-MS ratio, at 1 µM, hits give low values
DPP9 = conditions: BW5147 mouse T-cell proteome, ABPP-SILAC LC-MS ratio, at 1 µM, hits give low values
ESD = conditions: BW5147 mouse T-cell proteome, ABPP-SILAC LC-MS ratio, at 1 µM, hits give low values
FAAH = conditions: BW5147 mouse T-cell proteome, ABPP-SILAC LC-MS ratio, at 1 µM, hits give low values
FASN = conditions: BW5147 mouse T-cell proteome, ABPP-SILAC LC-MS ratio, at 1 µM, hits give low values
LIPE = conditions: BW5147 mouse T-cell proteome, ABPP-SILAC LC-MS ratio, at 1 µM, hits give low values
LYPLA2 = conditions: BW5147 mouse T-cell proteome, ABPP-SILAC LC-MS ratio, at 1 µM, hits give low values
[2] = molecular target: Monoacylglycerol lipase ABHD6 (Mus musculus) (UniProt Q8R2Y0); conditions: BW5147 mouse T-cell proteome, ABPP-SILAC LC-MS ratio, at 1 µM, hits give low values
PAFAH1B2 = conditions: BW5147 mouse T-cell proteome, ABPP-SILAC LC-MS ratio, at 1 µM, hits give low values
PAFAH1B3 = conditions: BW5147 mouse T-cell proteome, ABPP-SILAC LC-MS ratio, at 1 µM, hits give low values
PNPLA6 = conditions: BW5147 mouse T-cell proteome, ABPP-SILAC LC-MS ratio, at 1 µM, hits give low values
PNPLA7 = conditions: BW5147 mouse T-cell proteome, ABPP-SILAC LC-MS ratio, at 1 µM, hits give low values
PPME1 = conditions: BW5147 mouse T-cell proteome, ABPP-SILAC LC-MS ratio, at 1 µM, hits give low values
PRCP = conditions: BW5147 mouse T-cell proteome, ABPP-SILAC LC-MS ratio, at 1 µM, hits give low values
[3] = molecular target: Platelet-activating factor acetylhydrolase 2, cytoplasmic (Mus musculus) (UniProt Q8VDG7); conditions: BW5147 mouse T-cell proteome, ABPP-SILAC LC-MS ratio; PAFAH2; at 1 µM; hits give low values
[4] = molecular target: Prolyl endopeptidase (Mus musculus) (UniProt Q9QUR6); conditions: BW5147 mouse T-cell proteome, ABPP-SILAC LC-MS ratio; PREP; at 1 µM; hits give low values
SEC23IP = conditions: BW5147 mouse T-cell proteome, ABPP-SILAC LC-MS ratio, at 1 µM, hits give low values
TPP2 = conditions: BW5147 mouse T-cell proteome, ABPP-SILAC LC-MS ratio, at 1 µM, hits give low values

Sequence of Platelet-activating factor acetylhydrolase 2, cytoplasmic (Mus musculus) (Q8VDG7 whole entry, looked up): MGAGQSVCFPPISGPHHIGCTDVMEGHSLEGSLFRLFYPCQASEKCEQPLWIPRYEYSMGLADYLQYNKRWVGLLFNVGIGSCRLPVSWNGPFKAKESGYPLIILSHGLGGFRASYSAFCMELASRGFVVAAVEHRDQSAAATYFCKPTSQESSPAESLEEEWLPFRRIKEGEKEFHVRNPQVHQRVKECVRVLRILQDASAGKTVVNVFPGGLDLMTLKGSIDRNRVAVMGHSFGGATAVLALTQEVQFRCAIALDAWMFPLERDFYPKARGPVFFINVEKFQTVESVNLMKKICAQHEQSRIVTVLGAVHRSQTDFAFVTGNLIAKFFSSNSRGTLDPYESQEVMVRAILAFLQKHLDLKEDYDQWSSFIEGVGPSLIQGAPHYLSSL
Sequence of Acyl-protein thioesterase 1 (Mus musculus) (P97823 whole entry, looked up): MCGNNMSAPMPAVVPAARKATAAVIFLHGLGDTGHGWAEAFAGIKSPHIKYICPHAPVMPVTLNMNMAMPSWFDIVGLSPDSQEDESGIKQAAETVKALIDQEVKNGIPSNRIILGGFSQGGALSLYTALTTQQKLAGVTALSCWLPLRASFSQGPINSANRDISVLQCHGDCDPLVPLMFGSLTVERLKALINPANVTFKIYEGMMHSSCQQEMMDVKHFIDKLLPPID
Sequence of Monoacylglycerol lipase ABHD6 (Mus musculus) (Q8R2Y0 whole entry, looked up): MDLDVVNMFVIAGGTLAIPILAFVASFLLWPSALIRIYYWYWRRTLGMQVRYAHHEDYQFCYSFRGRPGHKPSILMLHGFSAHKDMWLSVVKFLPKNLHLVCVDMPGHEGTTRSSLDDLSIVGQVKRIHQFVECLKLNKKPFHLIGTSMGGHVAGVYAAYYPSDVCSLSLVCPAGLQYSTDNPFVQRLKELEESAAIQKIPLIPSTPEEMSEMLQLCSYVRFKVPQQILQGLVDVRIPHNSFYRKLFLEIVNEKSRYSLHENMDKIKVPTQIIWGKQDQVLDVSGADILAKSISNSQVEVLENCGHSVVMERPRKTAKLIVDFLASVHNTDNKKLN
Sequence of Prolyl endopeptidase (Mus musculus) (Q9QUR6 whole entry, looked up): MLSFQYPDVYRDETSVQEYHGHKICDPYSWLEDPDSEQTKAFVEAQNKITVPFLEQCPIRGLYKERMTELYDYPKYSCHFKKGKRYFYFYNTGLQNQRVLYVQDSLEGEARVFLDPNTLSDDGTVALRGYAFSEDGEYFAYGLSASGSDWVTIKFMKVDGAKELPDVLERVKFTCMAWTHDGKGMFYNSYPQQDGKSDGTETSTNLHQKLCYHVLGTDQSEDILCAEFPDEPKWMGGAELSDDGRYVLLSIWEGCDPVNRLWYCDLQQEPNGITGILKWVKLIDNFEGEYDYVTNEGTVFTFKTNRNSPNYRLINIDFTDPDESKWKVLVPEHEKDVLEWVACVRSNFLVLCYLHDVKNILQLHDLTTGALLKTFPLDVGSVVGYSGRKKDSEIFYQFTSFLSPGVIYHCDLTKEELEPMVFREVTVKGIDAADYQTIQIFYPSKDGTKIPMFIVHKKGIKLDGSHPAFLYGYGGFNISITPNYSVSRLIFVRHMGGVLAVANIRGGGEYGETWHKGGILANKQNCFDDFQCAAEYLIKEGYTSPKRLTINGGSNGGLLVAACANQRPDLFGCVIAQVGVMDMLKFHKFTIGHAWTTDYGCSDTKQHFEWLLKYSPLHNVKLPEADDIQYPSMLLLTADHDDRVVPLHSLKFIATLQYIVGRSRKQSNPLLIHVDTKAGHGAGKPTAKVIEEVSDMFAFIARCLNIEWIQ

remaining activity ratio (inhibitor/DMSO) (AADACL1): 1.46 (inactive) | remaining activity ratio (inhibitor/DMSO) (ABHD12): 1.21 (inactive) | remaining activity ratio (inhibitor/DMSO) (ACOT1): 1.23 (inactive) | remaining activity ratio (inhibitor/DMSO) (ACOT2): 1.25 (inactive) | remaining activity ratio (inhibitor/DMSO) (APEH): 1.11 (inactive) | remaining activity ratio (inhibitor/DMSO) [1]: 1.08 (inactive) | remaining activity ratio (inhibitor/DMSO) (DPP4): 1.17 (inactive) | remaining activity ratio (inhibitor/DMSO) (DPP8): 1.1 (inactive) | remaining activity ratio (inhibitor/DMSO) (DPP9): 1.12 (inactive) | remaining activity ratio (inhibitor/DMSO) (ESD): 1.24 (inactive) | remaining activity ratio (inhibitor/DMSO) (FAAH): 1.25 (inactive) | remaining activity ratio (inhibitor/DMSO) (FASN): 1.14 (inactive) | remaining activity ratio (inhibitor/DMSO) (LIPE): 0.88 (inactive) | remaining activity ratio (inhibitor/DMSO) (LYPLA2): 0.01 | remaining activity ratio (inhibitor/DMSO) [2]: 1.06 (inactive) | remaining activity ratio (inhibitor/DMSO) (PAFAH1B2): 1.23 (inactive) | remaining activity ratio (inhibitor/DMSO) (PAFAH1B3): 1.09 (inactive) | remaining activity ratio (inhibitor/DMSO) (PNPLA6): 1.03 (inactive) | remaining activity ratio (inhibitor/DMSO) (PNPLA7): 1.12 (inactive) | remaining activity ratio (inhibitor/DMSO) (PPME1): 1.34 (inactive) | remaining activity ratio (inhibitor/DMSO) (PRCP): 1.56 (inactive) | remaining activity ratio (inhibitor/DMSO) [3]: 1.14 (inactive) | remaining activity ratio (inhibitor/DMSO) [4]: 1.12 (inactive) | remaining activity ratio (inhibitor/DMSO) (SEC23IP): 1.53 (inactive) | remaining activity ratio (inhibitor/DMSO) (TPP2): 1.2 (inactive)
SMILES: COc1ccc(N2CCN(C(=O)c3cc4c(s3)-c3ccccc3S(=O)(=O)C4)CC2)cc1
